Values quoted from earlier work as cited in patent US20220378880A1, “PHARMACEUTICAL COMPOSITIONS OF GHRH ANALOGS AND USES THEREOF” (Theratechnologies Inc., priority 2019, published 2022).

[1] = healthy subjects, single SC 2 mg dose

Absolute bioavailability (healthy adult subjects, SC 2 mg dose): less than 4% | Extent of absorption, mean (CV) [1]: 634.6 (72.4) pg·h/mL | Peak tesamorelin concentration (Cmax), mean (CV) [1]: 2874.6 (43.9) pg/mL | Thalf (expected) (single SC 2 mg dose): 0.4 h | Tmax (expected) (single SC 2 mg dose, median): 9 min
Structure (SMILES): CC/C=C/CC(=O)N[C@@H](Cc1ccc(O)cc1)C(=O)N[C@@H](C)C(=O)N[C@@H](CC(=O)O)C(=O)N[C@@H](C)C(=O)N[C@H](C(=O)N[C@@H](Cc1ccccc1)C(=O)N[C@H](C(=O)N[C@@H](CC(N)=O)C(=O)N[C@@H](CO)C(=O)N[C@@H](Cc1ccc(O)cc1)C(=O)N[C@@H](CCCNC(=N)N)C(=O)N[C@@H](CCCCN)C(=O)N[C@H](C(=O)N[C@@H](CC(C)C)C(=O)NCC(=O)N[C@@H](CCC(N)=O)C(=O)N[C@@H](CC(C)C)C(=O)N[C@@H](CO)C(=O)N[C@@H](C)C(=O)N[C@@H](CCCNC(=N)N)C(=O)N[C@@H](CCCCN)C(=O)N[C@@H](CC(C)C)C(=O)N[C@@H](CC(C)C)C(=O)N[C@@H](CCC(N)=O)C(=O)N[C@@H](CC(=O)O)C(=O)N[C@H](C(=O)N[C@@H](CCSC)C(=O)N[C@@H](CO)C(=O)N[C@@H](CCCNC(=N)N)C(=O)N[C@@H](CCC(N)=O)C(=O)N[C@@H](CCC(N)=O)C(=O)NCC(=O)N[C@@H](CCC(=O)O)C(=O)N[C@@H](CO)C(=O)N[C@@H](CC(N)=O)C(=O)N[C@@H](CCC(N)=O)C(=O)N[C@@H](CCC(=O)O)C(=O)N[C@@H](CCCNC(=N)N)C(=O)NCC(=O)N[C@@H](C)C(=O)N[C@@H](CCCNC(=N)N)C(=O)N[C@@H](C)C(=O)N[C@@H](CCCNC(=N)N)C(=O)N[C@@H](CC(C)C)C(N)=O)[C@@H](C)CC)C(C)C)[C@@H](C)O)[C@@H](C)CC [tesamorelin, trans-3-hexenoyl-GHRH(1-44)-NH2]
